Results taken from patent US20240091226A1, “Forms and Formulations Of A Tyrosine Kinase Non-Receptor 1 (TNK1) Inhibitor” (Sumitomo Pharma Oncology, inc., priority 2021, published 2024).
pIC50: −log10 of the molar value. Read-outs that look alike come from different tables or passages of the source.

Columns and labels:
[1] = system: Apc^Min+/− mice; experiment: ApcMin mouse efficacy model; format: in vivo
Method: TNK1 upregulation is reported to play a role in the pathogenic process of intestinal barrier disruption in a transgenic mice model of increased TNK1 expression/activation (PMID: 30320600). Therefore, the efficacy of the compound of structural formula I was evaluated in germline mutant mouse model of intestinal neoplasia and cachexia, Apc^Min+/− model, which is also known to induce gut barrier dysfunction (PMID: 21914473). Apc^Min+/− mice are reported to start the development of tumors at approximately 4 weeks of age. Twenty female Apc^Min+/− mice (JAX Stock No: 002020) were enrolled in the study at the age of 10 weeks. Randomization was done based on the body weight, and animals were divided into four treatment groups (5 mice/group). […] Celecoxib is a COX-2 inhibitor, and was used as a positive control because it has been reported to prevent and regress adenomas in APC model (PMID: 11016626). Mice were sacrificed 2 hours after the last dose of total 10 weeks of dosing (71 days), at the age of 20 weeks. After dosing started, the animals were checked daily for morbidity and mortality.

[2] = system: 10 cell lines from a variety of tumor types; experiment: Soft agar colony formation assay (3D colonies); format: cell-based; settings: for pIC50: 3D soft agar colonies
Method: (§1) In cancer research, natural cell characteristics and architectures can often be more closely mimicked by 3D cell models than monolayer cultures. The comparative efficacy of compound of structural formula I was explored in 2D and 3D culture systems using the soft agar colony formation assay and PDXO cultures. In each case, viability of the culture was assessed after treatment with compound of structural formula I.
(§2) Soft Agar Colony Formation Assay. Soft agar colony formation assay was performed in 10 cell lines from a variety of tumor types ranging from lung cancers to colorectal and prostate cancers (Pro Quinase Reaction Biology, Project Number: 17262). A complete list of tumor types used in the assay can be found in Table 7.1.

[3] = system: 10 cell lines from a variety of tumor types; experiment: 2D culture viability (counterpart of soft agar assay); format: cell-based
Method: as §1, §2

[4] = system: A549 cells; experiment: Soft agar colony formation assay, 3D vs 2D; format: cell-based; settings: for pIC50: Homo sapiens, A549, Lung
Method: as §1, §2

[5] = system: DU145 cells; experiment: Soft agar colony formation assay, 3D vs 2D; format: cell-based; settings: for pIC50: Homo sapiens, DU-145, DU145, Prostate
Method: as §1, §2

[6] = system: HT29 cells; experiment: Soft agar colony formation assay, 3D vs 2D; format: cell-based; settings: for pIC50: Homo sapiens, HT-29, HT29, Colorectal
Method: as §1, §2

[7] = system: 10 PDXO models; experiment: PDXO viability assay (Cell Titre Glo); format: cell-based; settings: all of the organoids tested, except CR6863B
Method: as §1
(§3) Viability Assay in Patient-Derived Xenograft Organoid Cell Lines (PDXO). To mimic more closely cancer tissue-like architecture, PDX organoids derived from patient-derived xenograft tissue were utilized. Viability assay was performed in 10 PDXO models, and the IC50 values were assessed after 5 days of treatment with compound of structural formula I using Cell Titre Glo.

[8] = system: BL5001B organoid (Bladder); experiment: PDXO viability assay (Cell Titre Glo); format: cell-based; settings: 120 h, 5 days of treatment
Method: as §1, §3

[9] = system: CR1489B organoid (Colorectal); experiment: PDXO viability assay (Cell Titre Glo); format: cell-based; settings: 120 h, 5 days of treatment
Method: as §1, §3

[10] = system: CR5088B organoid (Colorectal); experiment: PDXO viability assay (Cell Titre Glo); format: cell-based; settings: 120 h, 5 days of treatment
Method: as §1, §3

[11] = system: CR6863B organoid (Colorectal); experiment: PDXO viability assay (Cell Titre Glo); format: cell-based; settings: 120 h, 5 days of treatment
Method: as §1, §3

[12] = system: ES6470B organoid (Esophageal); experiment: PDXO viability assay (Cell Titre Glo); format: cell-based; settings: 120 h, 5 days of treatment
Method: as §1, §3

[13] = system: GA6891B organoid (Gastric); experiment: PDXO viability assay (Cell Titre Glo); format: cell-based; settings: 120 h, 5 days of treatment
Method: as §1, §3

[14] = system: LU0743B organoid (Lung); experiment: PDXO viability assay (Cell Titre Glo); format: cell-based; settings: 120 h, 5 days of treatment
Method: as §1, §3

[15] = system: LU11693B organoid (Lung); experiment: PDXO viability assay (Cell Titre Glo); format: cell-based; settings: 120 h, 5 days of treatment
Method: as §1, §3

[16] = system: LU11873B organoid (Lung); experiment: PDXO viability assay (Cell Titre Glo); format: cell-based; settings: 120 h, 5 days of treatment
Method: as §1, §3

[17] = system: LU6800B organoid (Lung); experiment: PDXO viability assay (Cell Titre Glo); format: cell-based; settings: 120 h, 5 days of treatment
Method: as §1, §3

[18] = Four-week capsule stability: assay and related substances (HPLC); format: physicochemical; settings: initial (not stored)
Method: Methods: Samples were stored (closed) at 40° C. and […] (RH). Appearance, water content, assay and related substances (HPLC) were tested (n=6), sink dissolution.

[19] = Homo sapiens, HCT-116, HCT116, Colorectal
[20] = 3D soft agar colonies, read-out: 3D IC50

For `COc1cc(N2CCN(C)CC2)c(Cl)cc1Nc1ncc(Cl)c(Nc2cccnc2N2CCCC2=O)n1` [compound of structural formula I, 1-(3-((5-chloro-2-((5-chloro-2-methoxy-4-(4-methylpiperazin-1-yl)phenyl)amino)pyrimidin-4-yl)amino)pyridin-2-yl)pyrrolidin-2-one], the “reduction of spleen size compared to vehicle” value ([1]; 10 mg/kg) was “approximately 52%”, the “reduction of spleen size compared to vehicle” value ([1]; 25 mg/kg) was “approximately 40%” and the “decrease in number of polyps in the intestine compared to vehicle” value ([1]; 25 mg/kg once daily oral gavage, 10 weeks, female Apc^Min+/− mice) was “approximately 49%”. For the same compound, the mean spleen weight ([1]; 25 mpk) was 191 mg, the “polyp growth” value ([1]; FIG. 8B) was “inhibits polyp growth” and the “splenomegaly and inflammation” value ([1]; FIG. 8C) was “attenuated”. For the same compound, the pIC50 ([2]; Homo sapiens, A2058, A2058, Melanoma) was 6.01, the pIC50 ([2]; Homo sapiens, C-33-A, C33A, Cervical) was 6.05 and the pIC50 [2, 19] was 6.12. The pIC50 ([2]; Homo sapiens, LoVo, Colorectal) was 5.54, the pIC50 ([2]; Homo sapiens, SW948, SW948, Colorectal) was 6.14 and the pIC50 ([2]; PC3, Prostate) was 6.06. For the same compound, the pIC50 ([2]; T84, Colorectal) was 5.82, the “sensitivity of 3D colonies compared to 2D counterparts (in words)” value ([2]; most of the cell lines tested) was “increased sensitivity” and the pIC50 [3, 19] was 5.47. For the same compound, the pIC50 ([3]; Homo sapiens, Lovo, Colorectal) was 5.45, the pIC50 ([3]; PC3, Prostate) was less than 5.00 and the “shift in IC50, 3D colonies vs 2D” value ([4]; A549) was “approximately 40 fold”. The pIC50 ([4]; 2D culture, read-out: 2D IC50) was less than 5.00, the pIC50 [4, 20] was 6.60 and the “shift in IC50, 3D colonies vs 2D” value ([5]; DU145) was “approximately 19 fold”. For the same compound, the pIC50 ([5]; 2D culture, read-out: 2D IC50) was 5.57, the pIC50 [5, 20] was 6.85 and the “shift in IC50, 3D colonies vs 2D” value ([6]; HT29) was “approximately 32 fold”. It also gave a pIC50 ([6]; 2D culture, read-out: 2D IC50) of 5.11, a pIC50 [6, 20] of 6.62 and a pIC50 [7] greater than 5.00. It also gave a pIC50 [8] of 6.40, a pIC50 [9] of 5.66 and a pIC50 [10] of 5.49. For the same compound, the pIC50 [11] was 4.99, the pIC50 [12] was 6.29 and the pIC50 [13] was 5.91. The pIC50 [14] was 5.61, the pIC50 [15] was 5.67 and the pIC50 [16] was 6.36. The pIC50 [17] was 6.40, the “Related substance at RRT 0.84” value [18] was less than 0.05% and the “Related substance at RRT 0.89” value [18] was 0.15%. The “Related substance at RRT 0.97” value [18] was 0.15%, the “Related substance at RRT 1.08” value [18] was 0.11% and the “Related substance at RRT 1.13” value [18] was less than 0.05%. For the same compound, the “Related substance at RRT 1.20” value [18] was 0.09%, the “Related substance at RRT 1.21” value [18] was 0.05% and the “Related substance at RRT 1.24” value [18] was 0.08%. For the same compound, the “Related substance at RRT 1.29” value [18] was less than 0.05%, the “Related substance at RRT 1.33” value [18] was less than 0.05% and the “Total Impurities” value [18] was 0.63%.
